The text below walks through data of patent publication US9717708B1, “Process for preparing ertapenem-containing lyophilized formulation” (DAEWOONG PHARMACEUTICAL CO., LTD., priority 2014, dated 2017).

A short description of series [1]: Purity (HPLC) before and after lyophilization and during storage, lyophilized formulation containing doripenem monohydrate. It is filed as physicochemical. The note with it: lyophilized formulations containing doripenem. As for the experimental part: (§1) Hydroxypropyl β-cyclodextrin (HP-β-CD) [MS=0.65, 2.76 g (1.0 eq.)] was dissolved in distilled water (16 mL). After cooling the solution to 0˜5° C., 10 portions of ertapenem monosodium salt (1 g in total, each portion having the same amount) were sequentially added to the solution for 60 minutes, while maintaining pH 7.8 with a 2N NaOH solution. The resulting solution was sterile-filtered at 0˜5° C., filled in a vial, and then lyophilized as follows: The filled vial was located on the shelf of a lyophilizer pre-cooled to −40° C. and then cooled for 3 hours. Vacuum (80 mTorr) was applied to the shelf, which was then heated to −20° C. at the rate of 0.5° C./min. The shelf was maintained under the conditions of −20° C. and 80 mTorr for 48 hours. The shelf was heated to 10° C. at the rate of 0.1° C./min and then to 40° C. at the rate of 0.5° C./min. […]
(§2) We evaluated whether or not hydroxypropyl β-cyclodextrin can also function both as a cryoprotective agent and as a stabilizing agent in the lyophilized formulations containing carbapenem antibiotics other than ertapenem. […] The purities before the lyophilization, the purities right after the lyophilization, and the purities of the lyophilized formulations which were respectively stored at low temperature (−20° C.), at room temperature, and under the accelerated (40° C., RH75%) condition for 4 weeks were respectively measured with a HPLC. […]

A short description of series [2]: Purity (HPLC) before and after lyophilization and during storage, lyophilized formulation containing meropenem trihydrate. It is filed as physicochemical. The note with it: lyophilized formulations containing meropenem. The procedure:
as §1, §2

On to `C[C@@H](O)[C@H]1C(=O)N2C(C(=O)O)=C(S[C@@H]3CN[C@H](CNS(N)(=O)=O)C3)[C@H](C)[C@H]12` [doripenem, doripenem monohydrate], for which the “function of hydroxypropyl β-cyclodextrin as cryoprotective and stabilizing agent” value in series [1] is “did not function as a cryoprotective agent nor as a stabilizing agent”.
For `C[C@@H](O)[C@H]1C(=O)N2C(C(=O)O)=C(S[C@@H]3CN[C@H](C(=O)N(C)C)C3)[C@H](C)[C@H]12` [meropenem, meropenem trihydrate], the “function of hydroxypropyl β-cyclodextrin as cryoprotective and stabilizing agent” value in series [2] is given as “did not function as a cryoprotective agent nor as a stabilizing agent”.
